What was measured:
[1] = molecular target: T1, Beta-adrenergic receptor kinase 1 (Homo sapiens) (UniProt P25098); assay: Residual activity of GRK2 at 0.1 uM by microplate scintillation counting
T1 sequence (whole entry): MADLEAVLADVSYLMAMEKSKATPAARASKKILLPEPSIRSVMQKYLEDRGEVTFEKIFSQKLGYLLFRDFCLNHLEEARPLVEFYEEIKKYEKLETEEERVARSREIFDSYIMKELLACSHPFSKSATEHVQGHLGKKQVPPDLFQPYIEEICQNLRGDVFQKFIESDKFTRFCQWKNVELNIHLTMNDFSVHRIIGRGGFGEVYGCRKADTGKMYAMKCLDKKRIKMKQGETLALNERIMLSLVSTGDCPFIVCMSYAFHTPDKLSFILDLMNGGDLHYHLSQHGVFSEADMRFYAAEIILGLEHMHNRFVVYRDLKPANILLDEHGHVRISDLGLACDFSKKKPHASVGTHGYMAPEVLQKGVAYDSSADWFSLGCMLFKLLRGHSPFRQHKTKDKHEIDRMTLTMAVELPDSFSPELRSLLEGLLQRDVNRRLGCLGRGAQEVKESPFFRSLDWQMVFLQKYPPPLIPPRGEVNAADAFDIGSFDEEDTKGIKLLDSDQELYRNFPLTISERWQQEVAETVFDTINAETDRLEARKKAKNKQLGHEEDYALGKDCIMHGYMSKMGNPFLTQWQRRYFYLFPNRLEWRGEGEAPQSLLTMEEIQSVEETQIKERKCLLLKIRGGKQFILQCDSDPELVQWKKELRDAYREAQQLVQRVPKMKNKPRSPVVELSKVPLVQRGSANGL

[2] = molecular target: Fibroblast growth factor receptor 1 (Homo sapiens) (UniProt P11362); assay: Residual activity of wild type FGF-R1 at 0.1 uM by microplate scintillation counting
Sequence of Fibroblast growth factor receptor 1 (Homo sapiens) (P11362 22-822 limits assumed): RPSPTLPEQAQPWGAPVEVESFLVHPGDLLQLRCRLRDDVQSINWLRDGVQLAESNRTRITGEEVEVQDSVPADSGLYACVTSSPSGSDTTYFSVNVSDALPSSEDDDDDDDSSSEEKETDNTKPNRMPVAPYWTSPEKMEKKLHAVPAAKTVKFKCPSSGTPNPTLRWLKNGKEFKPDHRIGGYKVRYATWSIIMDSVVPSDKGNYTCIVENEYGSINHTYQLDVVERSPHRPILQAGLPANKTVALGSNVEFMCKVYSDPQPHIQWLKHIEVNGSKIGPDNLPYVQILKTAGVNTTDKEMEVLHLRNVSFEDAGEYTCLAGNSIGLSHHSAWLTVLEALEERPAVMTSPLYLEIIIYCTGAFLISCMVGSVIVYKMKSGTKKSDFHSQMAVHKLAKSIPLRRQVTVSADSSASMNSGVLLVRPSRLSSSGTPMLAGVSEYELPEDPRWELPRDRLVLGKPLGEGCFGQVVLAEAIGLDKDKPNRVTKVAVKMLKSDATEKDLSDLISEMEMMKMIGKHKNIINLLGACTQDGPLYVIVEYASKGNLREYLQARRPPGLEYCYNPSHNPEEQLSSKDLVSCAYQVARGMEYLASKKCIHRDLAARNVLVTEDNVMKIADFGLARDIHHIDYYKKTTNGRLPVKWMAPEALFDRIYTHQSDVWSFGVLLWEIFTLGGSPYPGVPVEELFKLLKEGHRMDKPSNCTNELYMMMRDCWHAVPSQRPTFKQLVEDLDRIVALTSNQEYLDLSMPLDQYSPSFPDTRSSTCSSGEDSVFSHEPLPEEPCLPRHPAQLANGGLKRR

[3] = molecular target: Non-receptor tyrosine-protein kinase TYK2 (Homo sapiens) (UniProt P29597); assay: Residual activity of TYK2 at 10 uM by microplate scintillation counting
Sequence of Non-receptor tyrosine-protein kinase TYK2 (Homo sapiens) (P29597 whole entry): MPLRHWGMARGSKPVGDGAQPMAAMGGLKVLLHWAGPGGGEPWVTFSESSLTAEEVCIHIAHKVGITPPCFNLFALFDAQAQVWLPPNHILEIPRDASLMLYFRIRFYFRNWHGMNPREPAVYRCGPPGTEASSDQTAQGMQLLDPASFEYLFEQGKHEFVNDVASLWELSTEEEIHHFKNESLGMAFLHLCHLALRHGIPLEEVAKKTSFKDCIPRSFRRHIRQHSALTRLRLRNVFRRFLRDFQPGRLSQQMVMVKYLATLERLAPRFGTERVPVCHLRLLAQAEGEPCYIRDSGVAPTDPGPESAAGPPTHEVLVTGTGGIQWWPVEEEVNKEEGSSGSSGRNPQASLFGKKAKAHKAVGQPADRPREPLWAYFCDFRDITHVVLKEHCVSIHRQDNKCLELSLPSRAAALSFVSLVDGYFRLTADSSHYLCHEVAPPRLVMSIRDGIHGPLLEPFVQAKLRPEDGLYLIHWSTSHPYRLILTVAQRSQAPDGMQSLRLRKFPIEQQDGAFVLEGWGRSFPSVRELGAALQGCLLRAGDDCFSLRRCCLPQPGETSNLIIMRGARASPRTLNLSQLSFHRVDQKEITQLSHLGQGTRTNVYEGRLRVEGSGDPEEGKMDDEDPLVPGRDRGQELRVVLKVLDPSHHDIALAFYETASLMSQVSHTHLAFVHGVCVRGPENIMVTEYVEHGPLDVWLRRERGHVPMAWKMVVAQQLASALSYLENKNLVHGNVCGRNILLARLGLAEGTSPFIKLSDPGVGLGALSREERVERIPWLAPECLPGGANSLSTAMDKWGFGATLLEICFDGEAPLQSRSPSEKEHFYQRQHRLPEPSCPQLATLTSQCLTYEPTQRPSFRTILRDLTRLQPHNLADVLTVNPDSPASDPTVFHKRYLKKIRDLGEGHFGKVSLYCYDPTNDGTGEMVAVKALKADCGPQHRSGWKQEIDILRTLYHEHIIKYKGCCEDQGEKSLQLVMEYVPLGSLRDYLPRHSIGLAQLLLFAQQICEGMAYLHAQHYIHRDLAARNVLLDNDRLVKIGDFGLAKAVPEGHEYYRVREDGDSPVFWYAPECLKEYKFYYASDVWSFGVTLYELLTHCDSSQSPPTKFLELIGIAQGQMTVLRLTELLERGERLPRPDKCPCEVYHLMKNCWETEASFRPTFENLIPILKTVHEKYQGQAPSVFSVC

[4] = molecular target: Serine/threonine-protein kinase SIK2 (Homo sapiens) (UniProt Q9H0K1); assay: Residual activity of SNF1LK2 at 1 uM by microplate scintillation counting
Sequence of Serine/threonine-protein kinase SIK2 (Homo sapiens) (Q9H0K1 whole entry, looked up): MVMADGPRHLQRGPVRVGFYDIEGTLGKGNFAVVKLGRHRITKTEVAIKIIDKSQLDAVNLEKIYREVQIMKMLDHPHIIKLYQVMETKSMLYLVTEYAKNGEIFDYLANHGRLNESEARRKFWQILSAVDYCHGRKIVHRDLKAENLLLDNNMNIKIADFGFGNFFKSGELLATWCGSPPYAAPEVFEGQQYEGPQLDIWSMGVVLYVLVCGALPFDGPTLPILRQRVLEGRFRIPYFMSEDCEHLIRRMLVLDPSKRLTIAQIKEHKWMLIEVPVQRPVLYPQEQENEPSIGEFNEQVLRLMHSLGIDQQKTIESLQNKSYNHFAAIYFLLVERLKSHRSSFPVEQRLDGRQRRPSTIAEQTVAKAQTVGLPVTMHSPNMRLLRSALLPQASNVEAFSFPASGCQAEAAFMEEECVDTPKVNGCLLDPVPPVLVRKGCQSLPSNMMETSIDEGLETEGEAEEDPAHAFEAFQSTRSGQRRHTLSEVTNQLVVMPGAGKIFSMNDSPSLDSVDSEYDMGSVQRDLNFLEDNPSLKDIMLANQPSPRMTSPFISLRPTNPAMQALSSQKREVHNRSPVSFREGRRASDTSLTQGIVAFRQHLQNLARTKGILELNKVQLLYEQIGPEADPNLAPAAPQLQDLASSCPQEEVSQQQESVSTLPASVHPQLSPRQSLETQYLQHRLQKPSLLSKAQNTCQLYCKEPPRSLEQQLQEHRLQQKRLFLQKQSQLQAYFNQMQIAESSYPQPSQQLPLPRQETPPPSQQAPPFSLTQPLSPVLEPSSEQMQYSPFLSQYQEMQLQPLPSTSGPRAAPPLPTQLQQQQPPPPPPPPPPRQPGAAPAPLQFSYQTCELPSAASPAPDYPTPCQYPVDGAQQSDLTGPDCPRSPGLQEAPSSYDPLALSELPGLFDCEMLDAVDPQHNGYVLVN

[5] = molecular target: T2, Ephrin type-A receptor 8 (Homo sapiens) (UniProt P29322); assay: Residual activity of EPHA8 at 1 uM by microplate scintillation counting
T2 sequence (whole entry): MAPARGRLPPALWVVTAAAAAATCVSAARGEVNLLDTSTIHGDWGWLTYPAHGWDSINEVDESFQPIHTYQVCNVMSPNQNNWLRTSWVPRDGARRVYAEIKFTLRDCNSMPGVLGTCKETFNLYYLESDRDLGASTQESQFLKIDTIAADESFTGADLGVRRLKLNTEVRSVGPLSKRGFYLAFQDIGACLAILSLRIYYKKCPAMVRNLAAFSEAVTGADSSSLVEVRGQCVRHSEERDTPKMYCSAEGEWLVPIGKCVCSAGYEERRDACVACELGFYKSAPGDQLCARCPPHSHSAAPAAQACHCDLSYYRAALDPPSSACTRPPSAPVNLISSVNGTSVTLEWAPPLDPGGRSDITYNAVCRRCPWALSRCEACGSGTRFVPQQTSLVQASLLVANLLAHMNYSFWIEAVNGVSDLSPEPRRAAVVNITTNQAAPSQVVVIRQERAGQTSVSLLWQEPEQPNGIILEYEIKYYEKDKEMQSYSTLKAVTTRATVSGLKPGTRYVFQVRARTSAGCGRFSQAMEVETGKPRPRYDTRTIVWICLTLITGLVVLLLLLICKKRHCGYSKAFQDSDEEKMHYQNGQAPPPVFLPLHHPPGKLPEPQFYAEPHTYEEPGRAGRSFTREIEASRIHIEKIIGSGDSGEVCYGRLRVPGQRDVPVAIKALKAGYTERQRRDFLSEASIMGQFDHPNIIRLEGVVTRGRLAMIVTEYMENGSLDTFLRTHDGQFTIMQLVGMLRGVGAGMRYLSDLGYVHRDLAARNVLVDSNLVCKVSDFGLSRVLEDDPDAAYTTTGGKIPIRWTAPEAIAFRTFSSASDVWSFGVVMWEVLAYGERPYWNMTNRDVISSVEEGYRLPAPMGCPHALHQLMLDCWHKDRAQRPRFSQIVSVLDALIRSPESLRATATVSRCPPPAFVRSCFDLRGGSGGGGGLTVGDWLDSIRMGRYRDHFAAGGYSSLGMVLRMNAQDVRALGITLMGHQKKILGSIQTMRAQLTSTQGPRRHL

| residual activity [1] [%] | residual activity [2] [%] | residual activity [3] [%] | residual activity [4] [%] | residual activity [5] [%] | SMILES |
| --- | --- | --- | --- | --- | --- |
| 95 | 101 | 72 | 78 | 147 | COc1cc2c(Oc3ccc(-c4nc5ccccc5s4)cc3)ncnc2cc1OCCCN1CCCC1 |
| 95 | 103 | 72 | 88 | 123 | COc1cc2c(Oc3ccc(-c4nc5ccccc5s4)cc3)ncnc2cc1OCCCN1CCN(C)CC1 |
| 89 | 95 | 55 | 85 | 149 | COc1cc2c(Oc3ccc(-c4nc5ccccc5s4)cc3F)ncnc2cc1OCCCN1CCN(C)CC1 |
